Source: ChEMBL document CHEMBL1909046, “DrugMatrix in vitro pharmacology data”

What was measured:
[1] = molecular target: Sodium-dependent noradrenaline transporter (Homo sapiens, UniProt P23975); test: DRUGMATRIX: Norepinephrine Transporter radioligand binding (ligand: [125I] RTI-55); assay type: cell membranes, MDCK, Membrane; conditions: mdck; Not Active = under 50% inhibition at 10 µM
[2] = molecular target: Aldo-keto reductase family 1 member B1 (Rattus norvegicus, UniProt P07943); assay type: tissue-based, Lens of camera-type eye;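 also: inhibition of aldose reductase enzyme activity, measured with DL-glyceraldehyde as the substrate; in other assays of this panel Not Active means under 50% inhibition at 10 µM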
[3] = DRUGMATRIX: ATPase, Na+/K+ enzyme inhibition (substrate: ATP); assay type: tissue-based, Sus scrofa, Heart; conditions: Not Active = under 50% inhibition at 10 µM
[4] = molecular target: T1, Nitric oxide synthase, inducible (Mus musculus, UniProt P29477); design: species or system Escherichia coli;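 also: inhibition of iNOS enzyme activity measured with L-arginine as substrate; in other assays of this panel Not Active means under 50% inhibition at 10 µM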
T1 sequence (P29477 whole entry): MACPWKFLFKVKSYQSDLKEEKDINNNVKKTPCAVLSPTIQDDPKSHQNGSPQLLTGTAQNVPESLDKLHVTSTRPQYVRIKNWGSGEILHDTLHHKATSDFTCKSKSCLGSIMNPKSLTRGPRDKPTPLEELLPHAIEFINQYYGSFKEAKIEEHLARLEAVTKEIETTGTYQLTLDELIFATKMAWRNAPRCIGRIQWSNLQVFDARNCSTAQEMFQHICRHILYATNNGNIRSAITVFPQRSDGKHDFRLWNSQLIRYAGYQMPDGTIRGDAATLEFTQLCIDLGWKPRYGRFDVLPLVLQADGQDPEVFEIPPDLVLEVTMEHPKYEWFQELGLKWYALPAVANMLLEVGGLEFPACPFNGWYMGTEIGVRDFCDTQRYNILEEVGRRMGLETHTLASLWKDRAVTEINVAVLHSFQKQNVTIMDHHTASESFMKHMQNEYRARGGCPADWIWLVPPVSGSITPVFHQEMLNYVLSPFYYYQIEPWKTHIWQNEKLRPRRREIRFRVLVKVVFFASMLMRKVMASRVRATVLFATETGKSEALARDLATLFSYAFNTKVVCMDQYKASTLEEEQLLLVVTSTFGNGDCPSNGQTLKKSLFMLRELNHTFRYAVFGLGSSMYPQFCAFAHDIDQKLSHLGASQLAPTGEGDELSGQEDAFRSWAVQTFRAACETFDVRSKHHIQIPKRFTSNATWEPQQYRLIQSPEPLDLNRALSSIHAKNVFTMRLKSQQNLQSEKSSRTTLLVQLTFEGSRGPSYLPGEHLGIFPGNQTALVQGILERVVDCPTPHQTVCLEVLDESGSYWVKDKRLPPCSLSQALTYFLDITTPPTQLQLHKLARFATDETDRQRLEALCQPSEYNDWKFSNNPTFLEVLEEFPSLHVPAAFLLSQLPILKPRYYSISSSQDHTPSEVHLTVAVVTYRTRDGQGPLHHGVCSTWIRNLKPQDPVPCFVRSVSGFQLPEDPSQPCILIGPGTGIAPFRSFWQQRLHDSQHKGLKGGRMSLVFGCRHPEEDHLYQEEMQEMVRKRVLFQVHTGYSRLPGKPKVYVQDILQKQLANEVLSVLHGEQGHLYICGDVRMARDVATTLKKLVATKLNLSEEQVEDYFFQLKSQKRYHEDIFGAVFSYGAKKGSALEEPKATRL

Adenosine receptor A3 = molecular target: T2, Adenosine receptor A3 (Homo sapiens, UniProt P0DMS8); assay type: cell membranes, CHO-K1, Membrane;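 also: radioligand binding assay with AB-MECA serving as the labeled ligand; in other assays of this panel Not Active means under 50% inhibition at 10 µM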
T2 sequence (P0DMS8 whole entry): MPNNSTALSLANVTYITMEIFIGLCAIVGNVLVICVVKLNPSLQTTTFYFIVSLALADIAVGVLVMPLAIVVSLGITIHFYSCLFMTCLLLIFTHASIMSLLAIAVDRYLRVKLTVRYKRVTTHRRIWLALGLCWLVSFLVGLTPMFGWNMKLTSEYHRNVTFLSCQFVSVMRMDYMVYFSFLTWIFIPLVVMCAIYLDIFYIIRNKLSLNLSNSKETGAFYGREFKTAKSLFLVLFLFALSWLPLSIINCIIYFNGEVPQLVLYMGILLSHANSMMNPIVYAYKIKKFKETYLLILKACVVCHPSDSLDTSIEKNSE

Cytochrome P450 2D6 = Cytochrome P450 2D6 (Homo sapiens, UniProt P10635); conditions: bti-tn-5b1-4; also: in other assays of this panel Not Active means under 50% inhibition at 10 µM
Cytochrome P450 2D6, sequence (P10635 whole entry): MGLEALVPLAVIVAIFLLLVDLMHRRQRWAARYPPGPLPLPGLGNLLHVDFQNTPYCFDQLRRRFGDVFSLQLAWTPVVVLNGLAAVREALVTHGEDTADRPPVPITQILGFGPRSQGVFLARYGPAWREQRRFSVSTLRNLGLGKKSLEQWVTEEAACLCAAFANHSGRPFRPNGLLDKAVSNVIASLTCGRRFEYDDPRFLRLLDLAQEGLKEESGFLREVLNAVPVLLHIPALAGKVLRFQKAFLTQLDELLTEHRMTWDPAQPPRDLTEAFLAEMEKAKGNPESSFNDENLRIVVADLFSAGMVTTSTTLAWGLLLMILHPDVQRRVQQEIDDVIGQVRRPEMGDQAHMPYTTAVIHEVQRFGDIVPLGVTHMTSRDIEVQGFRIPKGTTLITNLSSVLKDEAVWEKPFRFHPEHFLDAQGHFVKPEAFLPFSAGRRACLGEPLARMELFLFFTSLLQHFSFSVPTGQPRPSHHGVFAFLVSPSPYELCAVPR

Sodium-dependent noradrenaline transporter, sequence (P23975 whole entry): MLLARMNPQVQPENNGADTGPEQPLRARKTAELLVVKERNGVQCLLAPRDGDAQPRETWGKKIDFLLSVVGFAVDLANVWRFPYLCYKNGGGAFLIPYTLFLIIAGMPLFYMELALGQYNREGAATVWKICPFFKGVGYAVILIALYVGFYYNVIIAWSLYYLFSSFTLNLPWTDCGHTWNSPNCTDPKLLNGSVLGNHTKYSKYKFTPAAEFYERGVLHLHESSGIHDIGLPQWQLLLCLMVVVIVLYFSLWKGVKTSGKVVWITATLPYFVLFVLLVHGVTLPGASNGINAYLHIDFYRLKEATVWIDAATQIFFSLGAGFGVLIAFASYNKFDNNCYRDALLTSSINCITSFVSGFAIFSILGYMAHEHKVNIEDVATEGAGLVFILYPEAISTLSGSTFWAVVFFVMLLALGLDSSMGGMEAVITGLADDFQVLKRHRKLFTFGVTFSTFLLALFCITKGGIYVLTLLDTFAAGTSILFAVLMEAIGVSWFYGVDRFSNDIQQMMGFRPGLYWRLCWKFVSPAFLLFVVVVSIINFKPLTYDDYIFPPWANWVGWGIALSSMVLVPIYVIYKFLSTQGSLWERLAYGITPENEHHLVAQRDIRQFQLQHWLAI

With `O=C(c1ccccc1C(F)(F)F)N1CCC(Cc2ccccc2)CC1` the IC50 [1] was “Not Active”, the IC50 [2] was “Not Active” and the IC50 [3] was “Not Active”. The Ki [3] was “Not Active”, the IC50 [4] was “Not Active” and the IC50 (Adenosine receptor A3; cho-k1) was “Not Active”. The IC50 (Cytochrome P450 2D6) was “Not Active” and the Ki (Cytochrome P450 2D6) was “Not Active”.

In the case of `O=C/C=C/c1ccccc1`, the IC50 [1] is reported as “Not Active”, the IC50 [2] is reported as “Not Active” and the IC50 [3] is reported as “Not Active”. The Ki [3] was “Not Active”, the IC50 [4] was “Not Active” and the IC50 (Adenosine receptor A3; cho-k1) was “Not Active”. For the same molecule, the IC50 (Cytochrome P450 2D6) was “Not Active” and the Ki (Cytochrome P450 2D6) was “Not Active”.

For `Nc1ccc2c3c(cccc13)C(=O)NC2=O`, the IC50 [1] was “Not Active”, the IC50 [2] was “Not Active” and the IC50 [3] was “Not Active”. For the same molecule, the Ki [3] was “Not Active”, the IC50 [4] was “Not Active” and the IC50 (Adenosine receptor A3; cho-k1) was “Not Active”. The IC50 (Cytochrome P450 2D6) was “Not Active” and the Ki (Cytochrome P450 2D6) was “Not Active”.

In the case of `COc1ccc(C(=O)N2CCCC2=O)cc1`, the IC50 [1] is reported as “Not Active”, the IC50 [2] is reported as “Not Active” and the IC50 [3] is reported as “Not Active”. The Ki [3] was “Not Active”, the IC50 [4] was “Not Active” and the IC50 (Adenosine receptor A3; cho-k1) was “Not Active”. The IC50 (Cytochrome P450 2D6) was “Not Active” and the Ki (Cytochrome P450 2D6) was “Not Active”.

With `O=c1cnn([C@@H]2O[C@H](CO)[C@@H](O)[C@H]2O)c(=O)[nH]1` [6-AZAURIDINE] the IC50 [1] was “Not Active”, the IC50 [2] was “Not Active” and the IC50 [3] was “Not Active”. The Ki [3] was “Not Active”, the IC50 [4] was “Not Active” and the IC50 (Adenosine receptor A3; cho-k1) was “Not Active”. For the same molecule, the IC50 (Cytochrome P450 2D6) was “Not Active” and the Ki (Cytochrome P450 2D6) was “Not Active”.

In the case of `CC[C@H](C)[C@H]1O[C@]2(C=C[C@@H]1C)C[C@@H]1C[C@@H](C/C=C(\C)[C@@H](O[C@H]3C[C@H](OC)[C@@H](O[C@H]4C[C@H](OC)[C@@H](O)[C@H](C)O4)[C@H](C)O3)[C@@H](C)/C=C/C=C3\CO[C@@H]4[C@H](O)C(C)=C[C@@H](C(=O)O1)[C@]34O)O2.CO[C@H]1C[C@H](O[C@H]2[C@H](C)O[C@@H](O[C@@H]3/C(C)=C/C[C@@H]4C[C@@H](C[C@]5(C=C[C@H](C)[C@@H](C(C)C)O5)O4)OC(=O)[C@@H]4C=C(C)[C@@H](O)[C@H]5OC/C(=C\C=C\[C@@H]3C)[C@]54O)C[C@@H]2OC)O[C@@H](C)[C@@H]1O` [ABAMECTIN], the IC50 [1] is reported as “Not Active”, the IC50 [2] is reported as “Not Active” and the IC50 [3] is reported as “Not Active”. The Ki [3] was “Not Active”, the IC50 [4] was “Not Active” and the IC50 (Adenosine receptor A3; read-out: IC50) was 870 nM. The Ki (Adenosine receptor A3; read-out: Ki) was 492 nM, the IC50 (Cytochrome P450 2D6) was “Not Active” and the Ki (Cytochrome P450 2D6) was “Not Active”.

In the case of `NCCCC(O)(P(=O)(O)O)P(=O)(O)O` [ALENDRONIC ACID], the IC50 [1] is reported as “Not Active”, the IC50 [2] is reported as “Not Active” and the IC50 [3] is reported as “Not Active”. For the same molecule, the Ki [3] was “Not Active”, the IC50 [4] was “Not Active” and the IC50 (Adenosine receptor A3; cho-k1) was “Not Active”.

For `Cc1nnc2n1-c1ccc(Cl)cc1C(c1ccccc1)=NC2` [ALPRAZOLAM], the IC50 [1] was “Not Active”, the IC50 [2] was “Not Active” and the IC50 [3] was “Not Active”. The Ki [3] was “Not Active”, the IC50 [4] was “Not Active” and the IC50 (Adenosine receptor A3; cho-k1) was “Not Active”. The IC50 (Cytochrome P450 2D6) was “Not Active” and the Ki (Cytochrome P450 2D6) was “Not Active”.

For `Cn1c(=O)c2[nH]cnc2n(C)c1=O.Cn1c(=O)c2[nH]cnc2n(C)c1=O.NCCN` [AMINOPHYLLINE], the IC50 [1] was “Not Active”, the IC50 [2] was “Not Active” and the IC50 [3] was “Not Active”. For the same molecule, the Ki [3] was “Not Active”, the IC50 [4] was “Not Active” and the IC50 (Adenosine receptor A3; cho-k1) was “Not Active”. For the same molecule, the IC50 (Cytochrome P450 2D6) was “Not Active” and the Ki (Cytochrome P450 2D6) was “Not Active”.

In the case of `CCC1(CCC(C)C)C(=O)NC(=O)NC1=O` [AMOBARBITAL], the IC50 [1] is reported as “Not Active”, the IC50 [2] is reported as “Not Active” and the IC50 [3] is reported as “Not Active”. For the same molecule, the Ki [3] was “Not Active”, the IC50 [4] was “Not Active” and the IC50 (Adenosine receptor A3; cho-k1) was “Not Active”. For the same molecule, the IC50 (Cytochrome P450 2D6) was “Not Active” and the Ki (Cytochrome P450 2D6) was “Not Active”.

In the case of `CC1(C)S[C@@H]2[C@H](NC(=O)[C@H](N)c3ccccc3)C(=O)N2[C@H]1C(=O)O` [AMPICILLIN], the IC50 [2] is reported as “Not Active”, the IC50 [3] is reported as “Not Active” and the Ki [3] is reported as “Not Active”. The IC50 [4] was “Not Active”, the IC50 (Adenosine receptor A3; cho-k1) was “Not Active” and the IC50 (Cytochrome P450 2D6) was “Not Active”. For the same molecule, the Ki (Cytochrome P450 2D6) was “Not Active”.

For `CN1[C@@H]2CC[C@H]1C[C@@H](OC(=O)C(CO)c1ccccc1)C2` (stereo partly drawn) [ATROPINE], the IC50 [1] was “Not Active”, the IC50 [2] was “Not Active” and the IC50 [3] was “Not Active”. For the same molecule, the Ki [3] was “Not Active”, the IC50 [4] was “Not Active” and the IC50 (Adenosine receptor A3; cho-k1) was “Not Active”.

In the case of `COc1ccc2cc3[n+](cc2c1OC)CCc1cc2c(cc1-3)OCO2.[Cl-]` [BERBERINE CHLORIDE], the IC50 [1] is reported as “Not Active”, the IC50 [2] is reported as “Not Active” and the IC50 [3] is reported as “Not Active”. The Ki [3] was “Not Active”, the IC50 [4] was “Not Active” and the IC50 (Adenosine receptor A3; cho-k1) was “Not Active”.
